Reference: US9493455B2, “Azaindole derivatives as inhibitors of protein kinases” (ORIBASE PHARMA, priority 2012, dated 2016)

Legend:
ABL = target: T1, ABL (Homo sapiens, UniProt P00519); test: In vitro kinase assay (Z′-LYTE); format: biochemical; settings: read-out: % of inhibition of the kinase compared to the control
T1 construct: purchased Invitrogen

ABL T315I = target: T2, ABL T315I (Homo sapiens, UniProt P00519, T315I); test: In vitro kinase assay (Z′-LYTE); format: biochemical; settings: read-out: % of inhibition of the kinase compared to the control
T2 construct: purchased Invitrogen
Outline: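 Inhibition measured at a single dose, 100 nM, or 10 μM for ABL T315I. Z′-LYTE format with ATP at apparent Km; emission ratio of donor to acceptor quantifies phosphorylation.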

BRAF = target: T3, BRAF (Homo sapiens, UniProt P15056); test: In vitro kinase assay (Z′-LYTE); format: biochemical; settings: compound 100 nM; ATP 100 μM; read-out: % of inhibition of the kinase compared to the control
T3 construct: purchased Invitrogen
Outline: (§1)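 Peptide/kinase mix combined with ATP (apparent Km) in 50 mM HEPES pH 7.5, 10 mM MgCl2, 1 mM EGTA, 0.01% BRIJ-35; compound present at 100 nM, except 10 μM for ABL T315I; DMSO 1% final. Protease development, then FRET emission ratio.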

EGFR (ErbB1) = target: T4, EGFR (ErbB1) (Homo sapiens, UniProt P00533); test: In vitro kinase assay (Z′-LYTE); format: biochemical; settings: read-out: % of inhibition of the kinase compared to the control
T4 construct: purchased Invitrogen
T4 sequence (P00533 25-1210): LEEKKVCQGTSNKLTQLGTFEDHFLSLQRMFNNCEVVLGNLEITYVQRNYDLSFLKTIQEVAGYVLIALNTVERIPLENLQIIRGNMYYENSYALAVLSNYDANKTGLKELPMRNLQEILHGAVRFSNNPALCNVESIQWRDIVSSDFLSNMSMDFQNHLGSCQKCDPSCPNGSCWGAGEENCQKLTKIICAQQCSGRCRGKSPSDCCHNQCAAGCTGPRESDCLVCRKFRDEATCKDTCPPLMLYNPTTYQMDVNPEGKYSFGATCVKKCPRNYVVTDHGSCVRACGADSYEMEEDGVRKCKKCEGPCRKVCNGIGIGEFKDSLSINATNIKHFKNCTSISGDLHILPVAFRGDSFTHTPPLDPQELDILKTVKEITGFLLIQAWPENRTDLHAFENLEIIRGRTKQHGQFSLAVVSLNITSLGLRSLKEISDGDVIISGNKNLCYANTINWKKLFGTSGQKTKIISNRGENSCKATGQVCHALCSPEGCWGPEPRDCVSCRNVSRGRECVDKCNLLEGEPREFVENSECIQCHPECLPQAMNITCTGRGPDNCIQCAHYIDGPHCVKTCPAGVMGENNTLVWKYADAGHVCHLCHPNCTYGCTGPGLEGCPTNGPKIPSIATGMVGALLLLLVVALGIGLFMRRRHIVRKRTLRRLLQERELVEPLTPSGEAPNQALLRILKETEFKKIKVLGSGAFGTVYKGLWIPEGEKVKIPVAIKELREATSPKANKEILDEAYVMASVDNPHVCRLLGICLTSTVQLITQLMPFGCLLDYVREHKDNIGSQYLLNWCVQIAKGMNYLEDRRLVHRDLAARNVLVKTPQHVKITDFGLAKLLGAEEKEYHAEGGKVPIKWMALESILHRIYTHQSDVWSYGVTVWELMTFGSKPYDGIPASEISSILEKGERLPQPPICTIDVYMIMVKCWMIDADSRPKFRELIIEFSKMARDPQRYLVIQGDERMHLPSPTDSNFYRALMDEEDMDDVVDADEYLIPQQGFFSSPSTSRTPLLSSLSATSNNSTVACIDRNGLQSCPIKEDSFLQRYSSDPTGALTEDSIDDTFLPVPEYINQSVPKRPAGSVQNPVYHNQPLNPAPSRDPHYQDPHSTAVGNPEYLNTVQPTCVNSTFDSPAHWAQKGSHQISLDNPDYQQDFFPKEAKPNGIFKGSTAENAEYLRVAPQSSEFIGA
Outline: as §1

EGFR (ErbB1) T790M L858R = target: T5, EGFR (ErbB1) T790M L858R (Homo sapiens, UniProt P00533, L858R/T790M); test: In vitro kinase assay (Z′-LYTE); format: biochemical; settings: read-out: % of inhibition of the kinase compared to the control
T5 construct: purchased Invitrogen
Outline: as §1

FGFR1 = target: T6, FGFR1 (Homo sapiens, UniProt P11362); test: In vitro kinase assay (Z′-LYTE); format: biochemical; settings: read-out: % of inhibition of the kinase compared to the control
T6 construct: purchased Invitrogen
Outline: as §1

FGFR2 = target: T7, FGFR2 (Homo sapiens, UniProt P21802); test: In vitro kinase assay (Z′-LYTE); format: biochemical; settings: read-out: % of inhibition of the kinase compared to the control
T7 construct: purchased Invitrogen
T7 sequence (P21802 22-821): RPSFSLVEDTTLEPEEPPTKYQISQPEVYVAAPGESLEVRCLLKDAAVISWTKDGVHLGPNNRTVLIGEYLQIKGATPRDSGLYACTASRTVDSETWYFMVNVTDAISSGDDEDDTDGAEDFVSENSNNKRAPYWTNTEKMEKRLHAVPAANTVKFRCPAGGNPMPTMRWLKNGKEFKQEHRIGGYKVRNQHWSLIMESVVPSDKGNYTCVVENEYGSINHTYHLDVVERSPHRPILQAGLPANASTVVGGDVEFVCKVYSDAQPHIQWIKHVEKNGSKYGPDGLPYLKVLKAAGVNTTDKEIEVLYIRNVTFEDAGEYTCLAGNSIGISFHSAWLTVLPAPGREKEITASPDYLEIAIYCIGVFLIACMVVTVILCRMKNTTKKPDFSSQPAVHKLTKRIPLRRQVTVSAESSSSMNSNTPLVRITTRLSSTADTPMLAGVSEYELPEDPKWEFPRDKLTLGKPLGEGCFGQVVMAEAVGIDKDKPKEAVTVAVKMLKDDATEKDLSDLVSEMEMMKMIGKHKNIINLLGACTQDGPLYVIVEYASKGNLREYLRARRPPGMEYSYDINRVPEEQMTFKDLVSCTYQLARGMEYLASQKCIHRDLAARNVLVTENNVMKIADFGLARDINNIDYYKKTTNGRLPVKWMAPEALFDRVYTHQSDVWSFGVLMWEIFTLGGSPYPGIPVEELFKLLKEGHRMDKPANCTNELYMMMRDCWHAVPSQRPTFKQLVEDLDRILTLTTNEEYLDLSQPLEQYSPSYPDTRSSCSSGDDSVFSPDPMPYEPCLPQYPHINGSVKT
Outline: as §1

KDR (VEGFR2) = target: T8, KDR (VEGFR2) (Homo sapiens, UniProt P35968); test: In vitro kinase assay (Z′-LYTE); format: biochemical; settings: read-out: % of inhibition of the kinase compared to the control
T8 construct: purchased Invitrogen
Outline: as §1

PDGFRA (PDGFR alpha) = target: T9, PDGFRA (PDGFR alpha) (Homo sapiens, UniProt P16234); test: In vitro kinase assay (Z′-LYTE); format: biochemical; settings: read-out: % of inhibition of the kinase compared to the control
T9 construct: purchased Invitrogen
T9 sequence (P16234 24-1089): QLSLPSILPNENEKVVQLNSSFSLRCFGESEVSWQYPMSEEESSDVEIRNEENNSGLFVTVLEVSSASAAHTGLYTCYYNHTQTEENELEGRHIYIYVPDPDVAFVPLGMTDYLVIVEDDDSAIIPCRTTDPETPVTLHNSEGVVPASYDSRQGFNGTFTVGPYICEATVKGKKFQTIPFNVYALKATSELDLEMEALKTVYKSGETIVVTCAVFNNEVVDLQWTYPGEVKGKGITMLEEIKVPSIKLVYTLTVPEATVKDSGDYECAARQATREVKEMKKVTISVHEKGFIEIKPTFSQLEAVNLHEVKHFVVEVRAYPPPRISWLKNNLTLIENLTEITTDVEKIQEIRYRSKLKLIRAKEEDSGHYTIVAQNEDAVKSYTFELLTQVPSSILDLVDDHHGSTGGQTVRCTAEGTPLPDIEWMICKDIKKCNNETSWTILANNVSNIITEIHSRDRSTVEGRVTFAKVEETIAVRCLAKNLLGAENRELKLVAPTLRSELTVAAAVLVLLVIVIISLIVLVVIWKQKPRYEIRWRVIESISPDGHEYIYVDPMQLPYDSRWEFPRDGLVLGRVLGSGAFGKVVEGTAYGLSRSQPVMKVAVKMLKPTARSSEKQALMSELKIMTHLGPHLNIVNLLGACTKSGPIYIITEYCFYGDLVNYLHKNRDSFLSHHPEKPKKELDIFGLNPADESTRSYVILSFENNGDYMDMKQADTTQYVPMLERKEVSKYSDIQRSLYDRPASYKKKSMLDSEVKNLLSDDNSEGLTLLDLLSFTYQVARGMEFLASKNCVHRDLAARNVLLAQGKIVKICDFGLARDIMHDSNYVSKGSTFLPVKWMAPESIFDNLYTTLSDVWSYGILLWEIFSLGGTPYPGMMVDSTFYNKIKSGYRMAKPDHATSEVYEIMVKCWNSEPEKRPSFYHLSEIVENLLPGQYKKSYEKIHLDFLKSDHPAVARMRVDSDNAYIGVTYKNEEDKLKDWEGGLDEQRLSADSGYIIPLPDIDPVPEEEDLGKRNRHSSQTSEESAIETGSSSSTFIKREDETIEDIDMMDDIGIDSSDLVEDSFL
Outline: as §1

PDGFRB = target: T10, PDGFRB (Homo sapiens, UniProt P09619); test: In vitro kinase assay (Z′-LYTE); format: biochemical; settings: read-out: % of inhibition of the kinase compared to the control
T10 construct: purchased Invitrogen
Outline: as §1

SRC = target: T11, SRC (Homo sapiens, UniProt P12931); test: In vitro kinase assay (Z′-LYTE); format: biochemical; settings: read-out: % of inhibition of the kinase compared to the control
T11 construct: purchased Invitrogen
T11 sequence (P12931 whole entry): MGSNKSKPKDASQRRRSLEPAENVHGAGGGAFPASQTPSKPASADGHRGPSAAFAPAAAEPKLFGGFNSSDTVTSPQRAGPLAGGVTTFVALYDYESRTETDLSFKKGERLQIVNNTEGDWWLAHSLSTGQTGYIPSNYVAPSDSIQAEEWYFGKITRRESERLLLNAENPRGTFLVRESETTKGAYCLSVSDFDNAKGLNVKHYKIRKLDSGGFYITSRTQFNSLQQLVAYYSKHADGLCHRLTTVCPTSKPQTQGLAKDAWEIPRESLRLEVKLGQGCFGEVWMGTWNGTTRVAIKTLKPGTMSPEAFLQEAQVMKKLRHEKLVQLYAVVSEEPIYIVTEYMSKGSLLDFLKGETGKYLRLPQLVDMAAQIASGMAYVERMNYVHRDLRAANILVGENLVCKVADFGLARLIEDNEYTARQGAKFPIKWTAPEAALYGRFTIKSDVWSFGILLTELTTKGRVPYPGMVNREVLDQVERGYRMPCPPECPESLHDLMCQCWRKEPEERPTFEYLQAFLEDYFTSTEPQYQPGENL
Outline: as §1

VEGFR1 = target: T12, VEGFR1 (Homo sapiens, UniProt P17948); test: In vitro kinase assay (Z′-LYTE); format: biochemical; settings: read-out: % of inhibition of the kinase compared to the control
T12 construct: purchased Invitrogen
T12 sequence (P17948 27-1338): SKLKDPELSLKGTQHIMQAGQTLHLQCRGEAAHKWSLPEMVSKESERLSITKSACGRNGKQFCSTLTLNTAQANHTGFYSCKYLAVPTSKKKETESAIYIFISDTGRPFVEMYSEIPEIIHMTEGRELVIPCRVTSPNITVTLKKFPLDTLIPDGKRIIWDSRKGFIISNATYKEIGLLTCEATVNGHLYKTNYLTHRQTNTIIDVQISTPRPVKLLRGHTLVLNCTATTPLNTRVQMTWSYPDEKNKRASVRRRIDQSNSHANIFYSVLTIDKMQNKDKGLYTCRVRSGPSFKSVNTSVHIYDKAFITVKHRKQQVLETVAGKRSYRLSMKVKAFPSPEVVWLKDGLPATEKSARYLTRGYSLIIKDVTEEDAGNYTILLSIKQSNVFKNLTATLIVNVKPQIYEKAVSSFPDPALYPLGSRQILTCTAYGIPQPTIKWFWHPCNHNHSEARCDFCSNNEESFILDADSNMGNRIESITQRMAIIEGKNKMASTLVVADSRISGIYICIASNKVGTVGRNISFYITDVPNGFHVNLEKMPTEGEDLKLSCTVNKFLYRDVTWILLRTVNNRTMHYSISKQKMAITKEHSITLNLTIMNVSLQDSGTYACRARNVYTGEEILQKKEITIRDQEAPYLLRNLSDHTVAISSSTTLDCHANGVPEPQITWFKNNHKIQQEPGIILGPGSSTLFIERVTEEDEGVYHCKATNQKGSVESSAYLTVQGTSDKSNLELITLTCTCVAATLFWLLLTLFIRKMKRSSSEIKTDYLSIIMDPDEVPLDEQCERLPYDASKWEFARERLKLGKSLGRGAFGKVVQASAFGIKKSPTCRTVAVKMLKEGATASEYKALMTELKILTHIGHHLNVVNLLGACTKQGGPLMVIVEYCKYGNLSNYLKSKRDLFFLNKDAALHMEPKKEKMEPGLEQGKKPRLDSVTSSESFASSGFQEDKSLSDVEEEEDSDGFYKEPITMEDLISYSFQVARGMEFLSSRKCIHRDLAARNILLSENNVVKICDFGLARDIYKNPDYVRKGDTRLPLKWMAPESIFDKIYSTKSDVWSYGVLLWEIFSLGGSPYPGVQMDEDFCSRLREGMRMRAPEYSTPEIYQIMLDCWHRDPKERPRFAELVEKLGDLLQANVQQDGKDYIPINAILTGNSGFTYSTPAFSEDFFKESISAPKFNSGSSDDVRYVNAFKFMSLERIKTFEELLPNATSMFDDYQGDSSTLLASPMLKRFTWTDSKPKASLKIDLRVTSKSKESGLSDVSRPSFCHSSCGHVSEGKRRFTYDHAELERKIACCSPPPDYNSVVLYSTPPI
Outline: as §1

A549 = test: In vitro cell proliferation assay (MTT); format: cell-based; settings: Homo sapiens, A549, 72 h
Outline: (§2)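 MTT read-out of proliferation after 72 hr compound exposure; 5×10^3 cells/well, duplicate wells, dose range 10 nM–3 μM.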

BxPC-3 = test: In vitro cell proliferation assay (MTT); format: cell-based; settings: Homo sapiens, BXPC-3, 72 h
Outline: as §2

H1975 = test: In vitro cell proliferation assay (MTT); format: cell-based; settings: Homo sapiens, NCI-H1975, 72 h
Outline: as §2

HT29 = test: In vitro cell proliferation assay (MTT); format: cell-based; settings: Homo sapiens, HT-29, 72 h
Outline: as §2

HUVEC = test: In vitro cell proliferation assay (MTT); format: cell-based; settings: Homo sapiens, 72 h
Procedure: Cancer cell lines (5×10^3 cells per well) or HUVEC (1×10^4 cells per well) or HRMEC (1×10^4 cells per well) were distributed in 96-well plates and incubating in duplicate with escalating concentrations (10 nM to 3 μM) of compounds for 72 hr. Cell proliferation was measured using MTT (3 [4,5-dimethylthiazol-2-yl]-2,5-diphenyltetrazolium bromide).

HepG2 = test: In vitro cell proliferation assay (MTT); format: cell-based; settings: Homo sapiens, HepG2, 72 h
Outline: as §2

HuCCT1 = test: In vitro cell proliferation assay (MTT); format: cell-based; settings: Homo sapiens, HuCCT-1, 72 h
Outline: as §2

MDA-MB-231 = test: In vitro cell proliferation assay (MTT); format: cell-based; settings: Homo sapiens, MDA-MB-231, 72 h
Outline: as §2

PC-3 = test: In vitro cell proliferation assay (MTT); format: cell-based; settings: Homo sapiens, PC-3, 72 h
Outline: as §2

HeLa = test: In vitro cell proliferation assay (MTT); format: cell-based; settings: Homo sapiens, 72 h
Outline: as §2

SMILES | inhibition at 10 µM (ABL) [%] | inhibition at 10 µM (ABL T315I) [%] | inhibition at 0.1 µM (BRAF) [%] | inhibition at 0.1 µM (EGFR (ErbB1)) [%] | inhibition at 0.1 µM (EGFR (ErbB1) T790M L858R) [%] | inhibition at 0.1 µM (FGFR1) [%] | inhibition at 0.1 µM (FGFR2) [%] | inhibition at 0.1 µM (KDR (VEGFR2)) [%] | inhibition at 0.1 µM (PDGFRA (PDGFR alpha)) [%] | inhibition at 0.1 µM (PDGFRB) [%] | inhibition at 0.1 µM (SRC) [%] | inhibition at 0.1 µM (VEGFR1) [%] | EC50 (A549) [µM] | EC50 (BxPC-3) [µM] | EC50 (H1975) [µM] | EC50 (HT29) [µM] | EC50 (HepG2) [µM] | EC50 (MDA-MB-231) [µM] | EC50 (HeLa) [µM] | EC50 (HUVEC) [µM] | further results
COC(=O)c1cc2cc(NCc3cc(NC(=O)c4ccc(CN5CCC(O)CC5)c(C(F)(F)F)c4)ccc3C)cnc2[nH]1 [OR0636] | ≥ 50 | < 50 | < 50 | ≥ 50 | < 50 | < 50 | < 50 | < 50 | ≥ 50 | < 50 | ≥ 50 | < 50 | 0.1 to 1 | 0.1 to 1 | ≥ 1 | 0.1 to 1 | 0.1 to 1 | 0.1 to 1 |  | 0.1 to 1 | EC50 (HuCCT1): ≥ 1 µM; EC50 (PC-3): ≥ 1 µM
COC(=O)c1cc2cc(NCc3cc(NC(=O)Nc4ccncc4)ccc3C)cnc2[nH]1 [OR0952] |  |  | < 50 | < 50 |  |  | < 50 | < 50 | < 50 |  |  |  | ≥ 1 |  |  |  | ≥ 1 | ≥ 1 | ≥ 1 | ≥ 1 | 
COC(=O)c1cc2cc(NCc3cc(NC(=S)c4ccc(CN5CCN(C)CC5)c(C(F)(F)F)c4)ccc3C)cnc2[nH]1 [OR0626] |  |  | < 50 | ≥ 50 |  |  | ≥ 50 | < 50 |  |  |  |  | ≥ 1 |  |  |  | ≥ 1 | 0.1 to 1 | ≥ 1 | ≥ 1 | 
COC(=O)c1cc2cc(NCc3cc(NC(=O)c4cc(Nc5cc[nH]n5)cc(C(F)(F)F)c4)ccc3C)cnc2[nH]1 [OR0642] | ≥ 50 | ≥ 50 | < 50 | ≥ 50 | < 50 | < 50 | < 50 | < 50 | < 50 | < 50 | ≥ 50 | < 50 | 0.1 to 1 | 0.1 to 1 | ≥ 1 | 0.1 to 1 | ≤ 0.1 | ≤ 0.1 |  | ≤ 0.1 | EC50 (PC-3): ≥ 1 µM
COC(=O)c1cc2cc(NCc3cc(NC(=O)c4cccc(C(C)C)c4)ccc3C)cnc2[nH]1 [OR0610] | ≥ 50 | ≥ 50 | < 50 | ≥ 50 | < 50 | < 50 | < 50 | < 50 | ≥ 50 | < 50 | ≥ 50 | < 50 | 0.1 to 1 | 0.1 to 1 | 0.1 to 1 | 0.1 to 1 | 0.1 to 1 | ≤ 0.1 |  | ≤ 0.1 | EC50 (PC-3): ≥ 1 µM
COC(=O)c1cc2cc(NCc3cc(NC(=O)c4ccc5c(c4)OCO5)ccc3C)cnc2[nH]1 [OR0615] | ≥ 50 | < 50 | ≥ 50 | < 50 | < 50 | < 50 | < 50 | ≥ 50 | ≥ 50 | ≥ 50 | ≥ 50 | < 50 | ≥ 1 | ≥ 1 | ≥ 1 | ≥ 1 | ≥ 1 |  |  | 0.1 to 1 | EC50 (HuCCT1): ≥ 1 µM
COC(=O)c1cc2cc(NCc3cc(NC(=O)c4ccccc4OC)ccc3C)cnc2[nH]1 [OR1062] |  |  | ≥ 50 | < 50 |  |  | < 50 | < 50 | ≥ 50 |  | ≥ 50 |  | ≥ 1 |  |  |  | ≥ 1 | 0.1 to 1 | ≥ 1 | 0.1 to 1 | 
COC(=O)c1cc2cc(NCc3cc(NC(=O)c4ccc(Cn5cnc(C)c5)c(C(F)(F)F)c4)ccc3C)cnc2[nH]1 [OR0639] | ≥ 50 | ≥ 50 | ≥ 50 | ≥ 50 | < 50 | < 50 | < 50 | ≥ 50 | ≥ 50 | < 50 | < 50 | < 50 | 0.1 to 1 | 0.1 to 1 | ≥ 1 | 0.1 to 1 | 0.1 to 1 | 0.1 to 1 |  | 0.1 to 1 | EC50 (HuCCT1): ≥ 1 µM; EC50 (PC-3): ≥ 1 µM

Continued, in another order:

inhibition at 10 µM (ABL) [%] | inhibition at 10 µM (ABL T315I) [%] | inhibition at 0.1 µM (BRAF) [%] | inhibition at 0.1 µM (EGFR (ErbB1)) [%] | inhibition at 0.1 µM (EGFR (ErbB1) T790M L858R) [%] | inhibition at 0.1 µM (FGFR1) [%] | inhibition at 0.1 µM (FGFR2) [%] | inhibition at 0.1 µM (KDR (VEGFR2)) [%] | inhibition at 0.1 µM (PDGFRA (PDGFR alpha)) [%] | inhibition at 0.1 µM (PDGFRB) [%] | inhibition at 0.1 µM (SRC) [%] | inhibition at 0.1 µM (VEGFR1) [%] | EC50 (A549) [µM] | EC50 (BxPC-3) [µM] | EC50 (H1975) [µM] | EC50 (HT29) [µM] | EC50 (HepG2) [µM] | EC50 (MDA-MB-231) [µM] | EC50 (HeLa) [µM] | SMILES | EC50 (HUVEC) [µM] | further results
 |  | < 50 | ≥ 50 |  |  | ≥ 50 | ≥ 50 | ≥ 50 |  | ≥ 50 |  | 0.1 to 1 |  |  |  | ≥ 1 |  | 0.1 to 1 | COC(=O)c1cc2cc(NCc3cccc(NC(=O)c4ccc(CN5CCN(C)CC5)c(C(F)(F)F)c4)c3)cnc2[nH]1 [OR1067] | ≤ 0.1 | 
 |  | < 50 | < 50 |  |  |  | < 50 |  |  |  |  | ≥ 1 |  |  |  | 0.1 to 1 | 0.1 to 1 | ≥ 1 | COC(=O)c1cc2cc(NCc3cc(NC(=S)Nc4cccc(C(F)(F)F)c4)ccc3C)cnc2[nH]1 [OR1016] | ≥ 1 | 
≥ 50 | < 50 | ≥ 50 | < 50 | < 50 | < 50 | < 50 | ≥ 50 | ≥ 50 | ≥ 50 | ≥ 50 | < 50 | 0.1 to 1 | 0.1 to 1 | 0.1 to 1 | 0.1 to 1 | 0.1 to 1 |  |  | COC(=O)c1cc2cc(NCc3cc(NC(=O)c4cccc(C)c4)ccc3C)cnc2[nH]1 [OR0607] | ≤ 0.1 | EC50 (HuCCT1): 0.1 to 1 µM
≥ 50 | ≥ 50 | < 50 | < 50 | < 50 | < 50 | < 50 | < 50 | < 50 | < 50 | ≥ 50 | < 50 | 0.1 to 1 | 0.1 to 1 | 0.1 to 1 | 0.1 to 1 | ≤ 0.1 | ≤ 0.1 |  | COC(=O)c1cc2cc(NCc3cc(NC(=O)c4cc(N(C)C)cc(C(F)(F)F)c4)ccc3C)cnc2[nH]1 [OR0597] | 0.1 to 1 | EC50 (PC-3): ≥ 1 µM
 |  | < 50 | < 50 |  |  | < 50 | < 50 | < 50 |  |  |  | ≥ 1 |  |  |  | ≥ 1 | ≥ 1 | ≥ 1 | COC(=O)c1cc2cc(NC(=O)c3cccc(CNC(=S)c4cccc(C(F)(F)F)c4)c3)cnc2[nH]1 [OR1011] | ≥ 1 | 
